In data set [1] the test system is A549 human lung epithelial carcinoma cell line. The data set is described as follows: A549 cytotoxicity assay (resazurin / alamar blue). It is filed as cell-based. The following applies: at concentrations up to 100 μM (1, 50, 100 μM), 24 h. The protocol: Establishing the safety profile of new chemical entities is paramount for further drug development. […] The assay employed resazurin reduction, a sensitive fluorometric assay widely used as a standard methodology in drug discovery research.[35] This assay relies on the ability of living cells to reduce resazurin to the fluorescent compound, resorufin, which indicates the rate of the metabolic activity as a means to quantify cell viability.
Cell viability was assessed according to Nimesh et al.[51] on A549 adenocarcinomic human alveolar basal epithelial cell line. The viability of the A549 cell line was assessed after overnight incubation with three concentrations (1, 50, and 100 μM) of the corresponding compound using alamar blue (resazurin) dye. Cells were maintained in the Dulbecco’s Modified Essential Medium (DMEM) supplemented with 10% fetal bovine serum (FBS) and 1% penicillin–streptomycin–neomycin (PSN). After that, 100 μL of suspended cells with a final concentration (1 × 10^4 cells/wall) were seeded in 96-well plates with 100 μL of (1, 50, 100 μM) concentrations of the tested compound was dispensed in sextuplicate. […] The plates were further incubated for 4–6 h and the intensity of the fluorescence was measured using an excitation light of 510 nm and measuring the fluorescence output at 590 nm. The cell viability in each well was normalized to the DMSO reading.
On the technique in general: The colour change of resazurin is a common sign of viable cells or microbes.

Data set [2] concerns PqsR (PqsR-controlled pqsA promoter, PA14 mCTX::PpqsA-lux). The data set is described as follows: Bioluminescent reporter assay, PA14 mCTX::PpqsA-lux. The following applies: Pseudomonas aeruginosa, PA14, read-out: IC50 (μM) PA14 mCTX::PpqsA-lux. It is filed as cell-based. The protocol:
(§1) An extensive SAR was performed on 6a to investigate the role of substitutions around various positions of the benzimidazole ring (groups R1–R3) as well as the aromatic tail (groups R4–R5) to fine-tune the potency of this series (6a–u) (Table 2). The activity of these analogues to inhibit the pqs QS system was evaluated in the PAO1-L and PA14 strains (that belong to the two major P. aeruginosa genomic lineages), both harboring a chromosomally integrated mCTX::PpqsA-lux transcriptional fusion to report for the activity of pqs system. Successful pharmacological blocking of AQ signal reception at the level of PqsR leads to a reduced transcription of the pqsA-lux genes and ultimately reduction in the luminescence readout.
(§2) Strains PA14 mCTX::PpqsA-lux and PAO1-L mCTX::PpqsA-lux were used to detect PqsR-controlled activation of the pqsA promoter, as previously described,[45] and the assay was performed according to a published method.[46] For initial screening, the compounds were tested at a concentration of 10 μM, which was prepared from a 10 mM stock, in DMSO.
For orientation: A reporter such as luciferase makes a cellular process visible.

On the set-up of data set [3]: method as in PMID 33073099. The following applies: human microsomes; cited from earlier work.
Data set [4] relates to pyocyanin production in P. aeruginosa. Nature of the data set: Pyocyanin quantification. The following applies: for pyocyanin production: 6f 200 nM. It is filed as cell-based, Pseudomonas aeruginosa. The protocol: This assay was extended further to investigate the effect of 6f on pyocyanin production in different P. aeruginosa at 6f concentration of 200 nM (Figure 5b).
The experiment was performed following a published protocol with minor modifications. Strains were cultured into 5 mL of fresh medium overnight. […] Cells were centrifuged at 10 000 RCF for 10 min (Allegra 64R centrifuge, Beckman Coulter, High Wycombe, UK), and the supernatant was transferred to 15 mL falcon tubes with a HSW 10 mL Soft-Ject Syringe and a […] Sartorius syringe-driven filter (Fisher Brand, Loughborough, UK). Pyocyanin pigment was extracted into chloroform by mixing 7.5 mL of supernatant with 4.5 mL of chloroform. Pyocyanin was further extracted into 1.5 mL of 0.2 M HCL, which gave a pink/red solution, and the absorbance was measured at 520 nm.[47]

In data set [5] the test system is PqsR (PqsR-controlled pqsA promoter, PAO1-L mCTX::PpqsA-lux). The data set is described as follows: Bioluminescent reporter assay, PAO1-L mCTX::PpqsA-lux. It is filed as cell-based, Pseudomonas aeruginosa. The settings on record: Pseudomonas aeruginosa, PAO1, read-out: IC50 (μM) PAO1-L mCTX::PpqsA-lux. The protocol:
as §1, §2

For data set [6], the system named is AQ production in P. aeruginosa laboratory strains and CF isolates. Nature of the data set: Alkyl quinolone (AQ: HHQ, PQS, HQNO) quantification by LC-MS/MS. It is filed as cell-based, Pseudomonas aeruginosa. From the text: PqsR directly regulates the biosynthesis of diverse AQs, of which HHQ and PQS act as QS molecules, while others such as 2-heptyl- 4-hydroxyquinoline N-oxide (HQNO) are potent cytochrome bc1 inhibitors that contribute to the environmental competitiveness of this pathogen.[9],[28] Previous studies have shown that PQS is a multifunctional iron chelator acting via PqsR-dependent and PqsR-independent pathways, contributing directly to iron acquisition and microvesicle formation.[29] […] PqsR inhibition reduces production of AQ, which can be quantified to serve as a direct readout for pqs system inhibition.[9] To this end, 6f was incubated with various P. aeruginosa laboratory strains and CF isolates and its impact on AQ production determined quantitatively using LCMS/MS and compared with untreated samples.
For each test sample, 100 μL of sterile filtered supernatant was spiked with 10 μL of an internal standard solution (10 μM d4-PQS in MeOH) and diluted with water to a total volume of 500 μL. Samples were then extracted three times with an 0.5 mL aliquot of ethyl acetate, vortex mixing the aqueous/organic mix for 2 min, then removing the organic phase once the layers had successfully partitioned. For each sample, the combined organic extracts were dried under vacuum and redissolved in 100 μL of MeOH prior to analysis. For the LC-MS/MS analysis of supernatant extracts, the chromatography was achieved using a Shimadzu series 10AD VP LC system (Columbia, MD, USA). The LC column, maintained at 40 °C, was a Phenomenex Gemini C18 (3.0 μm, 100 mm × 3.0 mm) (Macclesfield, Cheshire, UK) with an appropriate guard column. Mobile phase A was 0.1% (v/v) formic acid in water containing 2 mM 2-picolinic acid, and mobile phase B 0.1% (v/v) formic acid in methanol. The flow rate throughout the chromatographic separation was 450 μL/min. After an injection of a 2 μL/sample, a binary gradient, beginning initially at 30% B, increased linearly to 99% B over 5 min. The composition remained at 99% B for 3 min, decreased to 30% B over 1 min, and stayed at this composition for 4 min, to allow for column equilibration. The MS system used for analyte detection was an Applied Biosystems Qtrap 4000 hybrid triple-quadrupole linear ion trap mass spectrometer (Foster City, CA, USA), equipped with an electrospray ionization (ESI) interface. Instrument control, data collection, and analysis were conducted using Analyst software (Foster City, CA, USA). […] Where chromatographic peaks for HHQ, HQNO, and PQS were detected, a peak area was determined, and analyte peak area/internal standard peak area calcdulated.

Results on one compound are retold here after publication PMC10823468, “Design, Synthesis, and Evaluation of New 1H-Benzo[d]imidazole Based PqsR Inhibitors as Adjuvant Therapy for Pseudomonas aeruginosa Infections” (Journal of Medicinal Chemistry, 2024).

As a reminder, the IC50 is the midpoint of a concentration-inhibition curve. For orientation: inhibition means the drop in the measured response relative to a control, in per cent.

Take `CC(C)n1c(NCC(O)COc2ccc(CC#N)cc2)nc2ccc(Cl)cc21` (stereo not drawn) [Compound 6f, 2-(4-(3-((6-Chloro-1-isopropyl-1H-benzo[d]imidazol-2-yl)amino)-2-hydroxypropoxy)phenyl) Acetonitrile]: the “cytotoxicity for A549 cells” value in data set [1] is “not cytotoxic”. Further, the figures for the IC50 in data set [2] and in data set [5] were 0.09 ± 0.01 µM and 0.07 ± 0.02 µM, respectively. Further, the half-life entry in data set [3] is recorded as “relatively short”. Moreover, the pyocyanin production result in data set [4] (IPCD1451) was “nonsignificant inhibition”; in data set [4] (all strains except IPCD1451) it was “inhibited pyocyanin production”. Besides, in data set [4] (PAO1-L, concentration three times the IC50, relative to DMSO), the “inhibition of pyocyanin production” value is recorded as approximately 80%. In addition, the “HHQ and PQS levels” value in data set [6] (0.2 μM 6f, IPCD1331) is recorded as “no significant reduction”; in data set [6] (0.2 μM 6f, PAO1-L, PA14 and IPCD48 CF isolate, vs untreated) it was “substantially reduced”. Further, in data set [6] (0.2 μM 6f, IPCD1451 CF isolate), the HQNO concentrations entry is reported as “nonsignificant reduction”. Also, the AQ production result in data set [6] (0.2 μM 6f, LESB58 strain) is reported as “moderate but significant reduction”. Moreover, the inhibition at 0.2 µM in data set [6] (Pseudomonas aeruginosa, read-out: HQNO inhibition) was 20 to 60%.
